{"source": "patent US7459168B2", "about": "“Insecticide transpiration apparatus” (Dainihon Jochugiku Co., Ltd., priority 2002, dated 2008)", "test_system": "mosquitos", "experiment": "Insecticidal effect (knock-down effect) by the open cylinder method", "type": "in vivo", "details": "for Insecticidal effect 15d (relative effectiveness ratio): fifteenth day; for Insecticidal effect 1d (relative effectiveness ratio): first day; for Insecticidal effect 30d (relative effectiveness ratio): thirtieth day", "from_the_text": "An insecticide was impregnated in various kinds of raw materials for preparing insecticide impregnated materials. The resulting insecticide-impregnated materials were housed in their respective insecticide cartridges of Example 1 and Comparative Example 1, followed by mounting each of them on an insecticide transpiration apparatus of the present invention. Subsequently, each of them was subjected to a measurement for estimating the transpiring amount of the chemical and a test for estimating insecticide effects on the first, fifteenth and thirtieth days while using the apparatus for twelve hours a day.\nA test of insecticidal effect (knock-down effect) was performed by the open cylinder method according to the following procedures.\nProcedures for Estimating the Insecticidal Effect of an Insecticidal Compound\nTwo plastic cylinders of 20 cm in inside diameter and 43 cm in height are piled up. A cylinder of 20 cm both in inside diameter and height is partitioned vertically with a wire net of 16 mesh (the place where the mosquitos are put in), and is placed thereon. A cylinder of 20 cm in inside diameter and height is further placed thereon. This set consisting of the four cylinders is placed on a stand, and an insecticide transpiration apparatus is placed in the middle of the stand to transpire the insecticidal ingredient in the chemical-impregnated material to be examined. Then about 20 mosquitos to be tested are released in the upper stair of the cylinder set and the number of mosquitos knocked down is observed with the time elapsed.\nFurthermore, the insecticidal effect was indicated as a relative effectiveness ratio in which an initial turning-over effect obtained by evaporation from a mosquito-repellent mat containing dl, d-cis, trans-allethrin (Pynamin Forte) on condition that a radiator plate of a heating unit is at a temperature of 160° C. The above test was repeated with various kinds of insecticides and the various amounts thereof, various chemical-impregnated materials and various particle sizes thereof, various free-volumes of the insecticide cartridge, various rotational speeds of the motor, respectively.", "key": {"[1]": {"details": "cartridge of Comparative Example 1, relative to Pynamin Forte mat"}, "[2]": {"details": "cartridge of Example 1, relative to Pynamin Forte mat"}, "[3]": {"details": "cartridge of Example 1, relative to initial effect of dl, d-cis, trans-allethrin (Pynamin Forte) mat at 160° C."}}, "data": [{"smiles": "CC(C)=CC1C(C(=O)OCc2c(F)c(F)cc(F)c2F)C1(C)C", "note": "(stereo not drawn) [Compound A, 2,3,5,6-tetrafluorobenzyl-chrysanthemate]", "values": [{"measurement": "Insecticidal effect 15d (relative effectiveness ratio)", "setting": "[1]", "result": 3.3}, {"measurement": "Insecticidal effect 1d (relative effectiveness ratio)", "setting": "[1]", "result": 3.4}, {"measurement": "Insecticidal effect 30d (relative effectiveness ratio)", "setting": "[1]", "result": 3.3}, {"measurement": "Insecticidal effect 15d (relative effectiveness ratio)", "setting": "[2]", "result": 3.8}, {"measurement": "Insecticidal effect 1d (relative effectiveness ratio)", "setting": "[3]", "result": 3.9}, {"measurement": "Insecticidal effect 30d (relative effectiveness ratio)", "setting": "[2]", "result": 3.8}]}, {"smiles": "CC=CC1C(C(=O)OCc2c(F)c(F)cc(F)c2F)C1(C)C", "note": "(stereo not drawn) [Compound B, 2,3,5,6-tetrafluorobenzyl-2,2-dimethyl-3-(1-propenyl) cyclopropane carboxylate]", "values": [{"measurement": "Insecticidal effect 15d (relative effectiveness ratio)", "setting": "[1]", "result": 2.1}, {"measurement": "Insecticidal effect 1d (relative effectiveness ratio)", "setting": "[1]", "result": 2.2}, {"measurement": "Insecticidal effect 30d (relative effectiveness ratio)", "setting": "[1]", "result": 2.0}, {"measurement": "Insecticidal effect 15d (relative effectiveness ratio)", "setting": "[2]", "result": 2.7}, {"measurement": "Insecticidal effect 1d (relative effectiveness ratio)", "setting": "[3]", "result": 2.8}, {"measurement": "Insecticidal effect 30d (relative effectiveness ratio)", "setting": "[2]", "result": 2.7}]}, {"smiles": "CC(C)=CC1C(C(=O)OCc2c(F)c(F)c(C)c(F)c2F)C1(C)C", "note": "(stereo not drawn) [Compound C, 4-methyl-2,3,5,6-tetrafluorobenzyl-chrysanthemate]", "values": [{"measurement": "Insecticidal effect 15d (relative effectiveness ratio)", "setting": "[1]", "result": 1.7}, {"measurement": "Insecticidal effect 1d (relative effectiveness ratio)", "setting": "[1]", "result": 1.8}, {"measurement": "Insecticidal effect 30d (relative effectiveness ratio)", "setting": "[1]", "result": 1.6}, {"measurement": "Insecticidal effect 15d (relative effectiveness ratio)", "setting": "[2]", "result": 2.2}, {"measurement": "Insecticidal effect 1d (relative effectiveness ratio)", "setting": "[3]", "result": 2.3}, {"measurement": "Insecticidal effect 30d (relative effectiveness ratio)", "setting": "[2]", "result": 2.2}]}, {"smiles": "CC=CC1C(C(=O)OCc2c(F)c(F)c(C)c(F)c2F)C1(C)C", "note": "(stereo not drawn) [Compound D, 4-methyl-2,3,5,6-tetrafluorobenzyl-2,2-dimethyl-3-(1-propenyl)cyclopropane carboxylate]", "values": [{"measurement": "Insecticidal effect 15d (relative effectiveness ratio)", "setting": "[1]", "result": 2.7}, {"measurement": "Insecticidal effect 1d (relative effectiveness ratio)", "setting": "[1]", "result": 2.8}, {"measurement": "Insecticidal effect 30d (relative effectiveness ratio)", "setting": "[1]", "result": 2.6}, {"measurement": "Insecticidal effect 15d (relative effectiveness ratio)", "setting": "[2]", "result": 3.2}, {"measurement": "Insecticidal effect 1d (relative effectiveness ratio)", "setting": "[3]", "result": 3.2}, {"measurement": "Insecticidal effect 30d (relative effectiveness ratio)", "setting": "[2]", "result": 3.1}]}, {"smiles": "Cc1c(F)c(F)c(COC(=O)C2C(C=C(F)F)C2(C)C)c(F)c1F", "note": "(stereo not drawn) [Compound E, 4-methyl-2,3,5,6-tetrafluorobenzyl-2,2-dimethyl-3-(2,2-difluorovinyl)cyclopropane carboxylate]", "values": [{"measurement": "Insecticidal effect 15d (relative effectiveness ratio)", "setting": "[1]", "result": 2.3}, {"measurement": "Insecticidal effect 1d (relative effectiveness ratio)", "setting": "[1]", "result": 2.4}, {"measurement": "Insecticidal effect 30d (relative effectiveness ratio)", "setting": "[1]", "result": 2.3}, {"measurement": "Insecticidal effect 15d (relative effectiveness ratio)", "setting": "[2]", "result": 2.8}, {"measurement": "Insecticidal effect 1d (relative effectiveness ratio)", "setting": "[3]", "result": 2.9}, {"measurement": "Insecticidal effect 30d (relative effectiveness ratio)", "setting": "[2]", "result": 2.8}]}, {"smiles": "COCc1c(F)c(F)c(COC(=O)C2C(C=C(C)C)C2(C)C)c(F)c1F", "note": "(stereo not drawn) [Compound F, 4-methoxymethyl-2,3,5,6-tetrafluorobenzyl-chrysanthemate]", "values": [{"measurement": "Insecticidal effect 15d (relative effectiveness ratio)", "setting": "[1]", "result": 1.7}, {"measurement": "Insecticidal effect 1d (relative effectiveness ratio)", "setting": "[1]", "result": 1.9}, {"measurement": "Insecticidal effect 30d (relative effectiveness ratio)", "setting": "[1]", "result": 1.5}, {"measurement": "Insecticidal effect 15d (relative effectiveness ratio)", "setting": "[2]", "result": 2.5}, {"measurement": "Insecticidal effect 1d (relative effectiveness ratio)", "setting": "[3]", "result": 2.6}, {"measurement": "Insecticidal effect 30d (relative effectiveness ratio)", "setting": "[2]", "result": 2.5}]}, {"smiles": "CC=CC1C(C(=O)OCc2c(F)c(F)c(COC)c(F)c2F)C1(C)C", "note": "(stereo not drawn) [Compound G, 4-methoxymethyl-2,3,5,6-tetrafluorobenzyl-2,2-dimethyl-3-(1-propenyl)cyclopropane carboxylate]", "values": [{"measurement": "Insecticidal effect 15d (relative effectiveness ratio)", "setting": "[1]", "result": 2.8}, {"measurement": "Insecticidal effect 1d (relative effectiveness ratio)", "setting": "[1]", "result": 2.9}, {"measurement": "Insecticidal effect 30d (relative effectiveness ratio)", "setting": "[1]", "result": 2.8}, {"measurement": "Insecticidal effect 15d (relative effectiveness ratio)", "setting": "[2]", "result": 3.4}, {"measurement": "Insecticidal effect 1d (relative effectiveness ratio)", "setting": "[3]", "result": 3.4}, {"measurement": "Insecticidal effect 30d (relative effectiveness ratio)", "setting": "[2]", "result": 3.4}]}, {"smiles": "CC1(C)C(C=C(Cl)C(F)(F)F)C1C(=O)OCc1c(F)c(F)c(F)c(F)c1F", "note": "(stereo not drawn) [Compound H, 2,3,4,5,6-pentafluorobenzyl-2,2-dimethyl-3-(2-chloro-2-trifluoromethylvinyl)cyclopropane carboxylate]", "values": [{"measurement": "Insecticidal effect 15d (relative effectiveness ratio)", "setting": "[1]", "result": 1.7}, {"measurement": "Insecticidal effect 1d (relative effectiveness ratio)", "setting": "[1]", "result": 1.9}, {"measurement": "Insecticidal effect 30d (relative effectiveness ratio)", "setting": "[1]", "result": 1.7}, {"measurement": "Insecticidal effect 15d (relative effectiveness ratio)", "setting": "[2]", "result": 2.3}, {"measurement": "Insecticidal effect 1d (relative effectiveness ratio)", "setting": "[3]", "result": 2.4}, {"measurement": "Insecticidal effect 30d (relative effectiveness ratio)", "setting": "[2]", "result": 2.3}]}, {"smiles": "C#CCc1c(F)c(F)c(COC(=O)C2C(C=CC)C2(C)C)c(F)c1F", "note": "(stereo not drawn) [Compound I, 4-propargyl-2,3,5,6-tetrafluorobenzyl-3-(1-propenyl)-2,2-dimethylcyclopropane carboxylate]", "values": [{"measurement": "Insecticidal effect 15d (relative effectiveness ratio)", "setting": "[1]", "result": 2.5}, {"measurement": "Insecticidal effect 1d (relative effectiveness ratio)", "setting": "[1]", "result": 2.6}, {"measurement": "Insecticidal effect 30d (relative effectiveness ratio)", "setting": "[1]", "result": 2.4}, {"measurement": "Insecticidal effect 15d (relative effectiveness ratio)", "setting": "[2]", "result": 2.9}, {"measurement": "Insecticidal effect 1d (relative effectiveness ratio)", "setting": "[3]", "result": 3.0}, {"measurement": "Insecticidal effect 30d (relative effectiveness ratio)", "setting": "[2]", "result": 2.9}]}, {"smiles": "COCc1c(F)c(F)c(COC(=O)C2C(C)(C)C2(C)C)c(F)c1F", "note": "[Compound J, 4-methoxymethyl-2,3,5,6-tetrafluorobenzyl-2,2,3,3-tetramethylcyclopropane carboxylate]", "values": [{"measurement": "Insecticidal effect 15d (relative effectiveness ratio)", "setting": "[1]", "result": 2.4}, {"measurement": "Insecticidal effect 1d (relative effectiveness ratio)", "setting": "[1]", "result": 2.5}, {"measurement": "Insecticidal effect 30d (relative effectiveness ratio)", "setting": "[1]", "result": 2.4}, {"measurement": "Insecticidal effect 15d (relative effectiveness ratio)", "setting": "[2]", "result": 2.8}, {"measurement": "Insecticidal effect 1d (relative effectiveness ratio)", "setting": "[3]", "result": 2.9}, {"measurement": "Insecticidal effect 30d (relative effectiveness ratio)", "setting": "[2]", "result": 2.8}]}, {"smiles": "C#CCc1c(F)c(F)c(COC(=O)C2C(C)(C)C2(C)C)c(F)c1F", "note": "[Compound K, 4-propargyl-2,3,5,6-tetrafluorobenzyl-2,2,3,3-tetramethyl cyclopropane carboxylate]", "values": [{"measurement": "Insecticidal effect 15d (relative effectiveness ratio)", "setting": "[1]", "result": 2.2}, {"measurement": "Insecticidal effect 1d (relative effectiveness ratio)", "setting": "[1]", "result": 2.3}, {"measurement": "Insecticidal effect 30d (relative effectiveness ratio)", "setting": "[1]", "result": 2.1}, {"measurement": "Insecticidal effect 15d (relative effectiveness ratio)", "setting": "[2]", "result": 2.7}, {"measurement": "Insecticidal effect 1d (relative effectiveness ratio)", "setting": "[3]", "result": 2.8}, {"measurement": "Insecticidal effect 30d (relative effectiveness ratio)", "setting": "[2]", "result": 2.7}]}]}
